Results: patent US7749976B2, “Isolated PTPMT1 protein which mediates insulin production and uses thereof” (The Regents of the University of California, priority 2005, dated 2010)
Marks after values point to notes of the source that are not given here.

What was measured:
PLIP [1] = molecular target: T1, PLIP (Mus musculus, UniProt Q66GT5); test: Phosphatase activity of various PTPs (malachite green / radiolabeled protein substrates); type: biochemical, murine; conditions: for Phosphatase activity, PLIP: mole of phosphate released/min/mol of enzyme, pH 5.5, triplicate, this study
T1 construct: ligating a PCR product encoding full-length PLIP; made in house; host or cells: Escherichia coli BL21 (DE3) CodonPlus RIL
T1 sequence (Q66GT5 32-193): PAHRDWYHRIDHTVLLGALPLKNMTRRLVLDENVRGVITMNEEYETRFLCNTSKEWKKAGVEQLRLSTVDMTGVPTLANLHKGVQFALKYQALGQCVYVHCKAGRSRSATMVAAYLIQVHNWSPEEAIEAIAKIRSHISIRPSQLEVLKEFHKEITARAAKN
Method: Recombinant murine PLIP was expressed as a fusion protein with N-terminal GST and 6-His tags in Escherichia coli BL21 (DE3) CodonPlus RIL cells (Stratagene). The expression construct was assembled by ligating a PCR product encoding full-length PLIP into the 5′-EcoR1 and 3′-Xho1 sites of a modified pET41 vector (pSJ6), kindly provided by Zhaohui Xu (University of Michigan). […] Cultures were then chilled on ice for 20 min, supplied with fresh antibiotics, induced with IPTG to a final concentration of 0.4 mM, and allowed to grow overnight @ 25° C., as previously described (Taylor and Dixon, 2003). All subsequent steps were performed @ 4° C. The cultures were pelleted by spinning @ 6000 rpm for 10 min in a Sorvall GSA rotor, resuspended in 30 ml of buffer (20 mM Imidazole, 50 mM Tris pH 7.4, 300 mM NaCl) with Complete protease inhibitors (Roche), and lysed via French Press. Insoluble material was removed by centrifugation @ 50,000 rpm for 30 min. The fusion protein was purified from the soluble supernatant first over Ni^2+ agarose beads, and then by successive separation on Superdex 75 and 200 gel filtration columns (Amersham). The resulting protein was concentrated, flash frozen in liquid nitrogen, and stored @−80° C. in 25% glycerol, 2 mM EDTA, and 2 mM DTT until use.
(§1) Di-C8 phosphoinosites (Echelon) and Dioleoyl-phosphatidylserine (Sigma) were dried together in a Speed Vac and resuspended via sonication in 18 μl assay buffer (100 mM sodium acetate, 50 mM bis-Tris, 50 mM Tris (pH 5.5), 10 mM DTT) to final concentrations of 50 μM and 500 μM, respectively. After prewarming at 37° C. for 5 min, reactions were initiated by the addition of 20 to 2000 ng of GST-PLIP diluted in assay buffer containing 1.0 mg/ml gelatin. Reactions were quenched after 5-30 min by the addition of 20 μl 0.1 M N-ethylmaleimide, and spun at 18,000×g for 10 min to sediment the lipid aggregates. Twenty-five microliters of the supernatant was added to 50 μl of malachite green reagent and vortexed. Samples were allowed to sit for 40 minutes for color development before measuring absorbance at 620 nm. Inorganic phosphate release was quantitated by comparison to a standard curve of KH2PO4 in dH2O.
(§2) Assays using radiolabeled protein substrates or pNPP were carried in assay buffer containing 50 mM sodium acetate, 25 mM bis-Tris, 25 mM Tris, and 2 mM DTT at pH 5.5 (GST-PLIP), 6.0 (VHR), or 7.0 (TC-PTP), at 30° C. Radiolabeled proteins and pNPP were prepared and assayed as previously reported (Taylor et al., 1997).

MTM1 [2] = molecular target: T2, MTM1 (Homo sapiens, UniProt Q13496); conditions: Ref. 32; cited from earlier work
T2 sequence (Q13496 1-603): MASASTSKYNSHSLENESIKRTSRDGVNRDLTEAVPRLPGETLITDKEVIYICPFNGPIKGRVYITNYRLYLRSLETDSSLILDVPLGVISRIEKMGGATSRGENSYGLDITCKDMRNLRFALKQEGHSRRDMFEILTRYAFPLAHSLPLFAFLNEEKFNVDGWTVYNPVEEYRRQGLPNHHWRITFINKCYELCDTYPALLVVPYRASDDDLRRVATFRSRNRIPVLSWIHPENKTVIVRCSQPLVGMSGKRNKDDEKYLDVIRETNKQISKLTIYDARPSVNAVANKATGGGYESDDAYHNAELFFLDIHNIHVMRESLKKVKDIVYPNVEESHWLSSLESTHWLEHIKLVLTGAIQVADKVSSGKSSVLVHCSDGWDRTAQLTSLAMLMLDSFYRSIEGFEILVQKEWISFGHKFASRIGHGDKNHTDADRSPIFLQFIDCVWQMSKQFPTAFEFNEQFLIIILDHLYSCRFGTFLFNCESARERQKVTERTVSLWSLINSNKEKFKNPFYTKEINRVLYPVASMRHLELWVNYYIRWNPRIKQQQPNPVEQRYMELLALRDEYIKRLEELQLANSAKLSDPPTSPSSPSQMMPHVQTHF

PTEN = PTEN (Homo sapiens, UniProt P60484); test: Phosphatase activity of various PTPs; type: biochemical; conditions: for Phosphatase activity, PTEN: phosphoinositide substrates, this study
PTEN, sequence (P60484 whole entry, species assumed): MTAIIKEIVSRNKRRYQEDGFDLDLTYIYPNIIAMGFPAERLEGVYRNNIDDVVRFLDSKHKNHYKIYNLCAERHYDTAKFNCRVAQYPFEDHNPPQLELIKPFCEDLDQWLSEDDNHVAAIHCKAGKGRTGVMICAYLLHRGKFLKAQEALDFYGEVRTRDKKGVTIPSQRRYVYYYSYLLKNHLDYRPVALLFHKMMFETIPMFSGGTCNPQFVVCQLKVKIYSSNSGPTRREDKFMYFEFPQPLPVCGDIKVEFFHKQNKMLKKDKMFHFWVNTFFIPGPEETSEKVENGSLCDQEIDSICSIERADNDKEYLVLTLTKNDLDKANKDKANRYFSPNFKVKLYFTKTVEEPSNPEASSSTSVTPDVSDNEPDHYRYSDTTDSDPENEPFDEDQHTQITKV

PLIP [3] = molecular target: T1, PLIP; test: Activity of PLIP against water soluble PI(5)P derivatives of varying acyl chain length; type: biochemical, murine; conditions: water soluble substrate
PLIP [4] = molecular target: T1, PLIP; test: Kinetic analysis of PLIP phosphatase activity (saturation kinetics); type: biochemical, murine
Method: as §2
To further explore PLIP's propensity to act as a protein phosphatase, a kinetic analysis of its activity toward the artificial phosphotyrosine analog, para-nitrophenyl phosphate (pNPP), alongside with di-C8 PI(5)P were performed (Taylor et al., 1997). FIG. 3 illustrates the kinetic analysis of PLIP phosphatase activity. Saturation kinetics for PLIP against pNPP (A) and water-soluble di-C8 PI(5)P (B) are shown. V (reaction velocity) is in units of pmol/(min μg).

TC-PTP = molecular target: T3, TC-PTP (Homo sapiens, UniProt P17706); test: Phosphatase activity of various PTPs (malachite green / radiolabeled protein substrates); type: biochemical
T3 sequence (P17706 1-415): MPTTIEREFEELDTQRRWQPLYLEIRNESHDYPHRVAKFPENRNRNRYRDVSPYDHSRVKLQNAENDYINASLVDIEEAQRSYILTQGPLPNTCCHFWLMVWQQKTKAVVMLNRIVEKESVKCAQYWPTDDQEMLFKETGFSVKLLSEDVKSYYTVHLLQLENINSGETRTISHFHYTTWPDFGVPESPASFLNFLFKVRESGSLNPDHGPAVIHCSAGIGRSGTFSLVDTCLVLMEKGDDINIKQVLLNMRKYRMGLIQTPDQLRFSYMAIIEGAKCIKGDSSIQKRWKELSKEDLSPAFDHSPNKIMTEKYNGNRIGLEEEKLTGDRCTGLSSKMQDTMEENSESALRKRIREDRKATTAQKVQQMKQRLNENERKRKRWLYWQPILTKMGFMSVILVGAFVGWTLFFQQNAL
Method: as §1, §2
(§3) Due to the only recent emergence of PI(5)P as a known signaling molecule, few PTP's have been tested for activity against this substrate. To ensure that activity against PI(5)P is not a common feature of PTP's, membrane-bound di-C8 PI(5)P was assayed using a known tyrosine-specific PTP (TC-PTP) and a known dual-specific PTP (VHR) (Ishibashi et al., 1992; Zhao et al., 1992; Ruzzene et al., 1993; Zhou et al., 1994; Denu et al., 1995).

VHR = VHR (Homo sapiens, UniProt P51452); test: as above; type: biochemical
VHR, sequence (P51452 whole entry, species assumed): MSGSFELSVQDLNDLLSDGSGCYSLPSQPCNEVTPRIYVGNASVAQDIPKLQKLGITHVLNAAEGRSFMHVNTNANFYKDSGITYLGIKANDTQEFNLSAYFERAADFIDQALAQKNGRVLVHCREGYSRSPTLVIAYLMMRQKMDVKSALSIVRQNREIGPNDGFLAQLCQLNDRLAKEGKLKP
Method: as §1, §2, §3

MTM1 [5] = molecular target: T2, MTM1; test: Phosphatase activity of various PTPs; type: biochemical
[6] = mole of phosphate released/min/mol of enzyme, triplicate, this study

With Nc1ncnc2c1ncn2[C@@H]1O[C@H](COP(=O)(O)OP(=O)(O)OP(=O)(O)O)[C@@H](O)[C@H]1O [ATP] the “ATPase activity of PTPMT1 in vitro” value (PLIP [1]) was “extremely poor”.
In the case of CCCCCCCC(=O)OC[C@H](COP(=O)(O)O[C@@H]1[C@H](O)[C@H](OP(=O)(O)O)[C@@H](O)[C@H](O)[C@H]1O)OC(=O)CCCCCCC [PI (3) P], the “Phosphatase activity, PLIP” value (PLIP [1]) is given as 1.3^b mol/(min mol), the “Phosphatase activity, MTM1” value (MTM1 [2]) is given as 4470^d mol/(min mol) and the “Phosphatase activity, PTEN” value (PTEN) is given as 77.9^b mol/(min mol).
For CCCCCCCC(=O)OC[C@H](COP(=O)(O)OC1[C@H](O)[C@H](OP(=O)(O)O)C(OP(=O)(O)O)[C@H](OP(=O)(O)O)[C@H]1O)OC(=O)CCCCCCC (stereo partly drawn) [PI (3, 4, 5) P3], the “Phosphatase activity, PLIP” value (PLIP [1]) is given as 3.1^b mol/(min mol), the “Phosphatase activity, MTM1” value (MTM1 [2]) is given as 2.1^d mol/(min mol) and the “PTEN fold preference over PI(3,5)P2” value (PTEN; di-C8 PIs in lipid bilayer with phosphatidylserine carrier lipid) is given as 1.8 fold. For the same compound, the “Phosphatase activity, PTEN” value (PTEN) was 346^b mol/(min mol).
In the case of CCCC(=O)OCC(COP(=O)(O)OC1C(O)C(O)C(O)C(OP(=O)(O)O)C1O)OC(=O)CCC (stereo not drawn) [di-C4 PI(5)P], the “Fold increase in PLIP activity versus inositol (1,5)P2” value (PLIP [3]) was 10 fold.
For O=[N+]([O-])c1ccc(OP(=O)(O)O)cc1 [pNPP, para-nitrophenyl phosphate], the “Km fold higher than Km for di-C8 PI(5)P” value (PLIP [4]) was “more than 150 fold” and the Km (PLIP [4]; PLIP against pNPP) was 5900 µM.
With casein the “PLIP activity, fold lower than against PI(5)P” value (PLIP [1]; radiolabeled protein substrates) was “approximately 1000 fold”.
With “phosphatidylinositol-5 phosphate [PI (5) P]” the “PLIP activity, fold greater than against PI(3,5)P2” value (PLIP [1]; di-C8 PI's in lipid bilayer with phosphatidylserine carrier lipid) was 44 fold, the “Phosphatase activity, PLIP” value (PLIP [1]) was 135^b mol/(min mol) and the “Fold increase in PLIP activity versus di-C4 PI(5)P” value (PLIP [3]) was 10 fold. The “Phosphatase activity, MTM1” value (MTM1 [2]) was 22.7^d mol/(min mol), the “PTEN: fold less efficiency than toward preferred substrate” value (PTEN) was 17 fold and the “Phosphatase activity, PTEN” value (PTEN) was 20.4^b mol/(min mol). For the same compound, the “TC-PTP activity” value (TC-PTP; membrane-bound di-C8 PI(5)P) was “barely detectable above background”, the “Phosphatase activity, TC-PTP” value (TC-PTP; [6]) was ~0.0^b mol/(min mol) and the “VHR activity” value (VHR; membrane-bound di-C8 PI(5)P) was “barely detectable above background”. The “Phosphatase activity, VHR” value (VHR; [6]) was ~0.0^b mol/(min mol), the Km (PLIP [4]; PLIP against water-soluble di-C8 PI(5)P) was 37.5 µM and the “MTM1: fold less efficiency than toward preferred substrate” value (MTM1 [5]) was 200 fold.
